# Laboratory results published in article PMC8307317, “Point-Substitution of Phenylalanine Residues of 26RFa Neuropeptide: A Structure-Activity Relationship Study” (Molecules, 2021).
# Non-standard residues stand in square brackets, D forms with d. Residues, ends and D or L forms follow the SMILES beside them. Phe(4-NO2) = N[C@@H](Cc1ccc([N+](=O)[O-])cc1)C(=O)O; Phe(4-tBu) = CC(C)(C)c1ccc(C[C@H](N)C(=O)O)cc1; Phe(4-Cl) = N[C@@H](Cc1ccc(Cl)cc1)C(=O)O; 2Nal = N[C@@H](Cc1ccc2ccccc2c1)C(=O)O; 2Thi = N[C@@H](Cc1cccs1)C(=O)O
# Biological target: T1, human QRFPR (hQRFPR) (Homo sapiens, UniProt Q96P65)
# T1 construct: expressed in transfected cells; host or cells: CHO cells, stably transfected with hQRFPR (G418 selection) and Gα16 (hygromycin B selection)
# T1 sequence (Q96P65 1-431): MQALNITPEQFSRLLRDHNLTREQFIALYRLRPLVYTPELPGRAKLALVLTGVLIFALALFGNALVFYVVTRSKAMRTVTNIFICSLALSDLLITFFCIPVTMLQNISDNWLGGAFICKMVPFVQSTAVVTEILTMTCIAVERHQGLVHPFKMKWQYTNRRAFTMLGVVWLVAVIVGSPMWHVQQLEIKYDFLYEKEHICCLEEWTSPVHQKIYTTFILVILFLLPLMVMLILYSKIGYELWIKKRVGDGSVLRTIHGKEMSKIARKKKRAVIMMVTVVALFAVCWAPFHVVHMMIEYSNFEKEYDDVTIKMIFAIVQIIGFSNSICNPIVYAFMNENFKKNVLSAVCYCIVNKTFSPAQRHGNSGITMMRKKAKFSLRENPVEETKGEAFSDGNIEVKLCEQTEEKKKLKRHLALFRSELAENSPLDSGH
# Experiment: Calcium mobilization assay, agonist mode ([Ca2+]i in Gα16-hQRFPR-transfected CHO cells)
# Assay type: cell-based
# Settings: [Ca2+]i mobilization in Gα16-hQRFPR-transfected CHO cells; mean of at least three independent experiments performed in triplicate; read-out: EC50
# Description: Stably transfected hQRFPR CHO cells were obtained as previously described. The cells were maintained in F-12 nutrient mixture (Ham-F12) medium supplemented with 10% fetal bovine serum, 2 mM glutamine, and penicillin-streptomycin. Expression of Gα16 cells was maintained using selection antibiotic hygromycin B (200 µg/mL) and that of hQRFPR using geneticin G418 (500 µg/mL) (Life Technologies, Villebon-Sur-Yvette, France) in a humidified 5% CO2 atmosphere at 37 °C.
# Changes in intracellular Ca^2+ concentrations induced by 26RFa(20–26) analogs in CHO-Gα16-hQRFPR-transfected cells were measured on a benchtop scanning fluorometer Flexstation III (Molecular Devices, Sunnyvale, CA, USA) as previously described. Briefly, 96-well assay black plates with clear bottoms (Corning international, Avon, France) were seeded at a density of 40,000 cells/well 24 h prior to assay. For profiling agonistic experiments, cells were loaded with 2 µM Fluo-4 acetoxymethyl ester (AM) (Invitrogen) for 1 h in the presence of 0.01% pluronic acid, washed thrice, and incubated for 30 min with standard HBSS containing 2.5 mM probenecid and 5 mM HEPES. Compounds to be tested were added at final concentrations ranging from 10^−11 to 10^−5 M in HBSS, and the fluorescence intensity was measured during 3 min. To evaluate the antagonistic potency of the test compounds, cells were incubated with each compound over 15 min after Fluo-4 AM loading. Then, during fluorescence recording, a pulse of 26RFa was administered at a final concentration of 10^−7 M. After subtraction of the mean fluorescence background, the baseline was normalized to 100%. Fluorescence peak values were determined for each concentration of compound.
# Calcium experiments were performed in triplicate, and data, expressed as mean ± SEM of at least three distinct experiments, were analyzed with the Prism 8.0 software (Graphpad Software, San Diego, CA, USA). EC50 and the IC50 values were determined from concentration–response curves using a sigmoidal dose–response fit with variable slope from at least three independent determinations. Differences between 26RFa(20–26) and analog activities were analyzed by the Mann–Whitney test. p values < 0.05 were considered significant.
row,Compound,EC50
1,"N=C(N)NCCC[C@H](NC(=O)[C@H](Cc1ccccc1)NC(=O)[C@H](CO)NC(=O)[C@H](Cc1cccs1)NC(=O)CNC(=O)CN)C(=O)N[C@@H](Cc1ccccc1)C(N)=O [Compound 2, [Thi^22]26RFa(20–26)] (H-GG[2Thi]SFRF-NH2)",3160 nM
2,"N=C(N)NCCC[C@H](NC(=O)[C@H](Cc1cccs1)NC(=O)[C@H](CO)NC(=O)[C@H](Cc1ccccc1)NC(=O)CNC(=O)CN)C(=O)N[C@@H](Cc1ccccc1)C(N)=O [Compound 3, [Thi^24]26RFa(20–26)] (H-GGFS[2Thi]RF-NH2)",2530 nM
3,"N=C(N)NCCC[C@H](NC(=O)[C@H](Cc1ccccc1)NC(=O)[C@H](CO)NC(=O)[C@H](Cc1ccccc1)NC(=O)CNC(=O)CN)C(=O)N[C@@H](Cc1cccs1)C(N)=O [Compound 4, [Thi^26]26RFa(20–26)] (H-GGFSFR[2Thi]-NH2)",7230 nM
4,"N=C(N)NCCC[C@H](NC(=O)[C@H](Cc1ccccc1)NC(=O)[C@H](CO)NC(=O)[C@H](Cc1ccc2ccccc2c1)NC(=O)CNC(=O)CN)C(=O)N[C@@H](Cc1ccccc1)C(N)=O [Compound 5, [2Nal^22]26RFa(20–26)] (H-GG[2Nal]SFRF-NH2)",1150 nM
5,"N=C(N)NCCC[C@H](NC(=O)[C@H](Cc1ccc2ccccc2c1)NC(=O)[C@H](CO)NC(=O)[C@H](Cc1ccccc1)NC(=O)CNC(=O)CN)C(=O)N[C@@H](Cc1ccccc1)C(N)=O [Compound 6, [2Nal^24]26RFa(20–26)] (H-GGFS[2Nal]RF-NH2)",15300 nM
6,"N=C(N)NCCC[C@H](NC(=O)[C@H](Cc1ccccc1)NC(=O)[C@H](CO)NC(=O)[C@H](Cc1ccccc1)NC(=O)CNC(=O)CN)C(=O)N[C@@H](Cc1ccc2ccccc2c1)C(N)=O [Compound 7, [2Nal^26]26RFa(20–26)] (H-GGFSFR[2Nal]-NH2)",3790 nM
7,"CC(C)(C)c1ccc(C[C@H](NC(=O)[C@H](CO)NC(=O)[C@H](Cc2ccccc2)NC(=O)CNC(=O)CN)C(=O)N[C@@H](CCCNC(=N)N)C(=O)N[C@@H](Cc2ccccc2)C(N)=O)cc1 [Compound 12, [ptBuPhe^24]26RFa(20–26)] (H-GGFS[Phe(4-tBu)]RF-NH2)",> 10000 nM

# Further lines, results first:
row,EC50,Compound
1,1040 nM,"CC(C)(C)c1ccc(C[C@H](NC(=O)[C@H](CCCNC(=N)N)NC(=O)[C@H](Cc2ccccc2)NC(=O)[C@H](CO)NC(=O)[C@H](Cc2ccccc2)NC(=O)CNC(=O)CN)C(N)=O)cc1 [Compound 13, [ptBuPhe^26]26RFa(20–26)] (H-GGFSFR[Phe(4-tBu)]-NH2)"
2,5000 nM,"N=C(N)NCCC[C@H](NC(=O)[C@H](Cc1ccccc1)NC(=O)[C@H](CO)NC(=O)[C@H](Cc1ccc(Cl)cc1)NC(=O)CNC(=O)CN)C(=O)N[C@@H](Cc1ccccc1)C(N)=O [Compound 14, [Pcp^22]26RFa(20–26)] (H-GG[Phe(4-Cl)]SFRF-NH2)"
3,850 nM,"N=C(N)NCCC[C@H](NC(=O)[C@H](Cc1ccc(Cl)cc1)NC(=O)[C@H](CO)NC(=O)[C@H](Cc1ccccc1)NC(=O)CNC(=O)CN)C(=O)N[C@@H](Cc1ccccc1)C(N)=O [Compound 15, [Pcp^24]26RFa(20–26)] (H-GGFS[Phe(4-Cl)]RF-NH2)"
4,457 nM,"N=C(N)NCCC[C@H](NC(=O)[C@H](Cc1ccccc1)NC(=O)[C@H](CO)NC(=O)[C@H](Cc1ccccc1)NC(=O)CNC(=O)CN)C(=O)N[C@@H](Cc1ccc(Cl)cc1)C(N)=O [Compound 16, [Pcp^26]26RFa(20–26)] (H-GGFSFR[Phe(4-Cl)]-NH2)"
5,2130 nM,"N=C(N)NCCC[C@H](NC(=O)[C@H](Cc1ccccc1)NC(=O)[C@H](CO)NC(=O)[C@H](Cc1ccc([N+](=O)[O-])cc1)NC(=O)CNC(=O)CN)C(=O)N[C@@H](Cc1ccccc1)C(N)=O [Compound 17, [pNO2Phe^22]26RFa(20–26)] (H-GG[Phe(4-NO2)]SFRF-NH2)"

# Same assay, conditions: single prototype curve, triplicate; basal [Ca2+]i mobilization; read-out: EC50 calculated from representative dose–response curves (Figure 3)
row,EC50,Compound
1,1080 nM,"CC(C)(C)c1ccc(C[C@H](NC(=O)[C@H](CCCNC(=N)N)NC(=O)[C@H](Cc2ccccc2)NC(=O)[C@H](CO)NC(=O)[C@H](Cc2ccccc2)NC(=O)CNC(=O)CN)C(N)=O)cc1 [Compound 13, [ptBuPhe^26]26RFa(20–26)] (H-GGFSFR[Phe(4-tBu)]-NH2)"
2,416 nM,"N=C(N)NCCC[C@H](NC(=O)[C@H](Cc1ccccc1)NC(=O)[C@H](CO)NC(=O)[C@H](Cc1ccccc1)NC(=O)CNC(=O)CN)C(=O)N[C@@H](Cc1ccc(Cl)cc1)C(N)=O [Compound 16, [Pcp^26]26RFa(20–26)] (H-GGFSFR[Phe(4-Cl)]-NH2)"
